{"source": "patent US11510407B2", "about": "“Compositions and methods for reducing ice crystal formation” (X-THERMA, INC., priority 2015, dated 2022)", "key": {"[1]": {"experiment": "Crystallographic x-ray diffraction (XRD) ice crystal formation assay", "format": "physicochemical", "conditions": "for reduction of necessary EG concentration while preventing ice formation (ice ring scores, FIG. 3D): 1 and 5 mg/mL compound, EG 15% to 30% (v/v)", "method": "In order to increase the throughput of library analysis, a crystallographic x-ray diffraction (XRD) technique was used to evaluate ice crystal formation. For these experiments, the compounds named “Compound 2,” “Compound 8,” “Compound 10,” “Compound 11,” “Compound 12,” “Compound 13,” and “Compound 58” were tested. Compound 58 is similar to Compound 12, except that an arginine amino acid has been appended to the N-terminal end.\nFor these experiments, EG concentrations between 15% and 30% (v/v) were used. Typically, EG, DMSO, and other cryoprotectants are used during XRD sample analysis at concentrations of 35-40% (v/v) to vitrify solutions and avoid diffraction interference from ice crystals. Concentrations of 1 and 5 mg/mL of the peptoid and peptoid-peptide compounds were used. […] FIG. 3D provides ice rings scores for a variety of EG concentrations and two concentrations of Compounds 2, 8, and 12.\n“IceRing1” and “IceRing2” refer to ice formation scores, which range between 0 (no ice formation) and 15 (large ice formation).\nThe sample containing Compound 12 at a concentration of 5 mg/mL (0.5% (w/v)) and EG at a concentration of 17.5% (v/v) in water was ice-free after flash freezing. […] In the figures, black spots and rings represent ice crystals."}, "[2]": {"conditions": "160 mM ethylene glycol in MilliQ water, slow cooled, −20° C., one hour", "method": "In this experiment, four water-based samples were prepared in capillary tubes containing MilliQ purified water. One sample contained only water, and another sample contained 160 mM ethylene glycol (EG). The other two samples each contained a peptoid polymer at 9 mM. One of the peptoid polymer samples contained the peptoid polymer called “Compound 1,” while the other sample contained the peptoid polymer called “Compound 10.” The sequences of the peptoid polymers are as follows:\nAfter sample preparation, all samples were slow cooled and incubated at −20° C. on a Peltier cooled plate. After one hour, samples were removed and immediately photographed using a digital camera attached to a 180× Stereo Zoom microscope (FIG. 2A)."}, "[3]": {"system": "HEK 293 cell line", "experiment": "Cytotoxicity assay (MTT)", "format": "cell-based, human", "method": "A Tecan Genesis Robotic Workstation was used to prepare solutions in 96- and 384-well plates. Solutions contained culture media, buffers, a cryoprotectant composition of the present invention (Compound 12) or DMSO. Solutions were adjusted to the desired pH. Serial dilutions were performed to obtain solutions containing various concentrations of Compound 12 and DMSO. Control experiments were performed using only culture media.\nFor these experiments, cells were seeded at low density (i.e., 10% confluence), exposed to solutions containing Compound 12 or DMSO, and placed in a 37° C. incubator. The cells were allowed to grow until control cells that were treated only with empty vehicle approached 70% confluence (typically about 3 to 5 days). Assessment for compound cytotoxicity was via MTT assay."}, "[4]": {"system": "HEK 293 cells", "experiment": "Cryopreservation assay (flash freeze-thaw, Calcein AM viability)", "format": "cell-based, human", "method": "Initial cryopreservation assays were performed using very simple solutions, with and without the addition of Compound 12, in order to minimize confounding outside factors. For this first set of experiments, two sample solutions were prepared. The first sample solution contained simple buffer and ethylene glycol (EG) at a concentration of 22.5% (v/v), and the second sample solution contained simple buffer, EG (22.5% (v/v)), and 5 mg/mL (0.5% (w/v)) of Compound 12.\nHEK 293 cells were grown until 70% confluent, then treated with trypsin to remove adhesion proteins and yield free floating cells. Cells were counted using a hemocytometer and sample cell concentrations were adjusted to final concentrations of 10,000 cells per microliter. Cells were then compressed into tight pellets by centrifugation, and each sample was subsequently mixed with 20 μL of one of the sample solutions. Samples were then flash frozen by immersion in liquid nitrogen, followed by rewarming in a 37° C. water bath. After the freeze-thaw process, cells were suspended in a 400× volume of culture media for recovery. The positive control sample was treated with culture media at 37° C. and not subjected to the freeze-thaw process. The negative control sample was treated with culture media only during the freeze-thaw process. After recovery, cells were stained with Calcein AM for 30 minutes and cell viability was measured using a fluorescence plate reader.\nA second set of experiments was performed to evaluate the cryopreservation potential of a formulation that contained 5 mg/mL of Compound 12 plus a mixture of glycols, disaccharides, and a general buffer. Post-thaw survival following vitrification in liquid nitrogen was evaluated as described above."}, "[5]": {"experiment": "Larger volume flash freeze / rewarm / −20° C. storage assay", "format": "physicochemical", "method": "In order to test the usefulness of compositions of the present invention at larger scales, experiments were performed using solution volumes that are similar to volumes used for standard egg and stem cell preservation. For these experiments, two samples, one containing 22.5% EG and buffer only, and another containing 22.5% EG and 5 mg/ml (0.5% w/v) of Compound 12 and buffer, were flash frozen in liquid nitrogen. […] The rewarming of the solutions in a 37° C. water bath led to an unexpected and beneficial result. The Compound 12 solution bypassed devitrification in less than 2 seconds upon rewarming (FIG. 6B, right), whereas chunks of ice were seen floating in the control sample (FIG. 6B, left) after 20 seconds. Condensation was seen on each of the tubes because the tubes were actually still much below room temperature."}, "[6]": {"conditions": "buffer + EG 22.5% (v/v) + 5 mg/mL Compound 12 with HEK 293 cells"}}, "note": "Entries after “also recorded” stand apart in the source; their conditions may differ."}
{"smiles": "OCCO", "note": "[EG, ethylene glycol, reference compound]", "values": [{"measurement": "ice formation after flash freezing (XRD, FIG. 3B)", "setting": "[1]; 30% (v/v) EG alone", "result": "partial vitrification with the presence of cubic ice"}, {"measurement": "ice crystal formation", "setting": "[2]", "result": "significant ice crystal formation"}]}
{"smiles": "C[S+](C)[O-]", "note": "[DMSO, dimethyl sulfoxide, reference compound]", "values": [{"measurement": "concentration above which warm survival for an extended period of time was not allowed", "setting": "[3]; HEK 293, MTT assay", "result": "above 0.5 % (v/v)"}]}
{"smiles": "CCC(C)NCC(=O)N(CC(=O)N(CC(=O)N(CC(=O)N(CC(=O)N(CC(=O)N(CC(=O)N(CC(=O)N(CC(=O)N(CC(N)=O)CC(C)O)CC(C)O)CC(C)O)C(C)CC)CC(C)O)CC(C)O)CC(C)O)CC(C)O)CC(C)O", "note": "(stereo not drawn) [Compound 8, Nsb-Nhp-Nhp-Nhp-Nhp-Nhp-Nsb-Nhp-Nhp-Nhp]", "values": [{"measurement": "reduction of necessary EG concentration while preventing ice formation (ice ring scores, FIG. 3D)", "setting": "[1]", "result": "significantly reduced necessary EG concentrations while preventing ice formation"}]}
{"smiles": "CCC(C)NCC(=O)N(CC(=O)N(CC(=O)N(CC(=O)N(CC(=O)N(CC(=O)N(CC(=O)N(CC(=O)N(CC(=O)N(CC(N)=O)C(C)CC)C(C)CC)CC(C)O)CC(C)O)C(C)CC)C(C)CC)CC(C)O)CC(C)O)C(C)CC", "note": "(stereo not drawn) [Compound 12, Nsb-Nsb-Nhp-Nhp-Nsb-Nsb-Nhp-Nhp-Nsb-Nsb]", "values": [{"measurement": "cell survival after freeze-thaw versus EG alone (FIG. 8)", "setting": "[4]; HEK 293, buffer + EG 22.5% (v/v) + 5 mg/mL Compound 12, liquid nitrogen, viability 12 hours post-thaw", "result": "greatly improved cell survival"}, {"measurement": "cryopreservation compared to VS2E and M22", "setting": "[4]; HEK 293, formulation containing 5 mg/mL Compound 12", "result": "superior cryopreservation"}, {"measurement": "post-thaw survival of the cells", "setting": "[4]; HEK 293, formulation with 5 mg/mL Compound 12 plus mixture of glycols, disaccharides, general buffer, vitrified in liquid nitrogen, 16 hours post-thaw", "result": 98, "unit": "%"}, {"measurement": "devitrification on rewarming compared to sample lacking Compound 12", "setting": "[4]; [6]", "result": "bypassed much more rapidly"}, {"measurement": "vitrification during the freezing process", "setting": "[4]; [6]", "result": "complete vitrification without ice formation"}, {"measurement": "vitrification / ice formation on flash freezing in liquid nitrogen", "setting": "[5]; 22.5% EG + 5 mg/ml (0.5% w/v) Compound 12 + buffer, −196° C.", "result": "complete vitrification with no ice formation; also recorded: able to vitrify; also recorded: vitrified"}, {"measurement": "time to bypass devitrification upon rewarming", "setting": "[5]; 22.5% EG + 5 mg/ml Compound 12, 37° C. water bath", "result": "less than 2 seconds"}, {"measurement": "state after overnight in −20° C. freezer", "setting": "[5]; 22.5% EG + 5 mg/ml Compound 12, 100 μL samples", "result": "completely unfrozen; also recorded: remained unfrozen"}, {"measurement": "behaviour during rewarming / thawing", "setting": "[5]; 22.5% EG + 5 mg/ml Compound 12, rewarming at 37° C.", "result": "active de-icer during thawing; also recorded: unfroze (within two seconds)"}, {"measurement": "reduction of necessary EG concentration while preventing ice formation (ice ring scores, FIG. 3D)", "setting": "[1]", "result": "significantly reduced necessary EG concentrations while preventing ice formation"}, {"measurement": "ice formation after flash freezing (XRD, FIG. 3A)", "setting": "[1]; Compound 12 5 mg/mL (0.5% (w/v)) + EG 17.5% (v/v) in water, stream of liquid nitrogen vapor", "result": "complete vitrification; also recorded: ice-free; also recorded: completely eliminate all ice formation"}, {"measurement": "anti-icing effect in comparison to EG at the same molar concentration", "setting": "[1]; Compound 12 5 mg/mL + EG 17.5% (v/v)", "result": 500, "unit": "times"}, {"measurement": "toxicity (MTT assay)", "setting": "[3]; HEK 293, at 0.5% w/v", "result": "did not show toxicity"}, {"measurement": "toxicity (MTT assay)", "setting": "[3]; HEK 293, at concentrations four times greater than 0.5% w/v", "result": "did not show significant toxicity"}, {"measurement": "toxicity compared with culture media alone (MTT assay)", "setting": "[3]; HEK 293, serial dilutions, 37° C., about 3 to 5 days", "result": "did not significantly deviate from the that of culture media alone"}]}
{"smiles": "CCC(C)NCC(=O)N(CC(=O)N(CC(=O)N(CC(=O)N(CC(=O)N(CC(=O)N(CC(=O)N(CC(=O)N(CC(=O)N(CC(N)=O)CC(C)O)C(C)CC)C(C)CC)C(C)CC)CC(C)O)CC(C)O)CC(C)O)C(C)CC)C(C)CC", "note": "(stereo not drawn) [Compound 2, Nsb-Nsb-Nsb-Nhp-Nhp-Nhp-Nsb-Nsb-Nsb-Nhp]", "values": [{"measurement": "reduction of necessary EG concentration while preventing ice formation (ice ring scores, FIG. 3D)", "setting": "[1]", "result": "significantly reduced necessary EG concentrations while preventing ice formation"}]}
